Test results as given in patent US12371428B2 (Exelixis, Inc., priority 2019, dated 2025).

Key:
[1] = biological target: Mer (phospho-Mer, MERTK-transfected 293A cells) (Homo sapiens (Human), UniProt Q12866); assay: Mer autophosphorylation ELISA in transient transfected 293A cells (Example H); assay type: cell-based; conditions: cellular activity; Mer autophosphorylation ELISA in transient transfected 293A cells
Method in brief: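 Human MERTK transiently transfected into 293A cells; compounds as 8-point dose curve in serum-free medium (0.3% DMSO final), 1 h. Lysates assayed by phospho-Mer sandwich ELISA against phospho-Mer standard; DMSO = 100%, reference inhibitor = 0% activity; IC50 from 4-parameter logistic fit.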

[2] = biological target: Human KDR (residues 790-1356) (Homo sapiens (Human), UniProt P35968); assay: Human KDR kinase assay, HTRF KinEase (Example B-2); assay type: biochemical; conditions: protocol of Example B-2 (other compounds)
Method in brief: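 Human KDR residues 790-1356 (0.1 ng/well) in buffer with 5 mM MgCl2, 1 mM MnCl2, 1 mM DTT, biotinylated peptide substrate, ATP at Km (4.0 μM), 3% DMSO, 10 compound concentrations; 40 min, room temperature. EDTA stop, streptavidin-XL665/Eu-TK antibody HTRF read 665/620 nm; 4-parameter IC50.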

[3] = biological target: Human MER (residues 528-999) (Homo sapiens (Human), UniProt Q12866); assay: Human Mer kinase assay, HTRF KinEase (Example C-2); assay type: biochemical; conditions: protocol of Example C-2 (other compounds)
Method in brief: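 HTRF KinEase TK assay with MER 528-999 (1 ng/well) in enzymatic buffer plus 5 mM MgCl2 and 1 mM DTT, biotinylated peptide substrate and ATP at Km (40 μM), 3% DMSO final, 60 min at room temperature. Stopped with EDTA detection mix (SA-XL665, TK antibody-Eu3+), read at 665/620 nm after 60 min; IC50 from 10-point 4-parameter fit, normalized to DMSO and 1 μM reference.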

[4] = biological target: Met (phospho-Met, HGF-stimulated PC-3 prostate cancer cells) (Homo sapiens (Human), UniProt P08581); assay: Met autophosphorylation ELISA in PC-3 cells (Example F); assay type: cell-based; conditions: cellular activity; Met autophosphorylation ELISA in PC-3 cells; read-out: c-Met IC50
Method in brief: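 Sandwich ELISA for phospho-Met (panTyr) in PC-3 lysates. Cells starved 3 h serum-free, compound 1 h (8-pt curve, 0.3% DMSO), HGF 100 ng/mL 10 min. 100% = HGF + DMSO; 0% = HGF + reference inhibitor. IC50 by 4-parameter fit.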

Chain of Mer (phospho-Mer, MERTK-transfected 293A cells) (Q12866 21-999): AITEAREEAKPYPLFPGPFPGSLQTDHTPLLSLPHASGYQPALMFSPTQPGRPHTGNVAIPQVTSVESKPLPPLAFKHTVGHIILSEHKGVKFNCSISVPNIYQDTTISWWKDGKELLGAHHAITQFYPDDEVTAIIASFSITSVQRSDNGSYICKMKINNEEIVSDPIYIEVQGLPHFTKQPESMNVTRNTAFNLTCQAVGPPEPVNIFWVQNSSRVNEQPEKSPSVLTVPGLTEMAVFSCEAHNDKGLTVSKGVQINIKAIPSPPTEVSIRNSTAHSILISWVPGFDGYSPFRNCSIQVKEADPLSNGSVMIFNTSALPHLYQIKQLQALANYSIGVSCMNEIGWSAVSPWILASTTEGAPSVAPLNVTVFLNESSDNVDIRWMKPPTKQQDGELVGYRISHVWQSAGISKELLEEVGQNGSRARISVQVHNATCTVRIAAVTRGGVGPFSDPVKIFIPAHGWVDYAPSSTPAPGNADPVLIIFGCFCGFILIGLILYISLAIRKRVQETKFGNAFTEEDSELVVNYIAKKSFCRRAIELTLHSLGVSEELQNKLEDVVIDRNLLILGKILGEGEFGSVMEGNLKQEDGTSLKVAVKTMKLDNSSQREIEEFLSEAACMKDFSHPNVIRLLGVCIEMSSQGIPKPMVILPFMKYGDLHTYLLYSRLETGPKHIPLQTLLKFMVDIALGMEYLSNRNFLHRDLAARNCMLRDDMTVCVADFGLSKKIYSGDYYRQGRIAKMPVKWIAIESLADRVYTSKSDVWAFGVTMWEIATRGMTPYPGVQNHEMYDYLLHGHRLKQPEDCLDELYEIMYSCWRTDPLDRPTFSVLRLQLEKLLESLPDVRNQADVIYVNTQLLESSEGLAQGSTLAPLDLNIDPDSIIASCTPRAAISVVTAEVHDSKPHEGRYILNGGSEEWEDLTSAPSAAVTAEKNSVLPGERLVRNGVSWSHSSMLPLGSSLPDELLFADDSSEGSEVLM
Chain of Human KDR (residues 790-1356) (P35968 790-1356): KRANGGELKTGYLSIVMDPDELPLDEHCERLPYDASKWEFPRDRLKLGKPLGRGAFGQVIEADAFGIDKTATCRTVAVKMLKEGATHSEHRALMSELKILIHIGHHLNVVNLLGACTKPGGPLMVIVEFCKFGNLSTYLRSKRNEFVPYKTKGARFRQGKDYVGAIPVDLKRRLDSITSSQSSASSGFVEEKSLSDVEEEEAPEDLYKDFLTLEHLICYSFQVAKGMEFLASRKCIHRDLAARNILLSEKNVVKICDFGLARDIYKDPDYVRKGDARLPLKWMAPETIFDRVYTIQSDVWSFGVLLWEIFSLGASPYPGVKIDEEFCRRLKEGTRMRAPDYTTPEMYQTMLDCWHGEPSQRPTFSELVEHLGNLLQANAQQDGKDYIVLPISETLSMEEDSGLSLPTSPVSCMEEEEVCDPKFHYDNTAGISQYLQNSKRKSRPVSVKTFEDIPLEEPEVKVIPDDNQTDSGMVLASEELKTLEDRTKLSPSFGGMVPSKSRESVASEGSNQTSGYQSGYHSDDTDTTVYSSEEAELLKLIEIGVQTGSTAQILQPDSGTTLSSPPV
Chain of Met (phospho-Met, HGF-stimulated PC-3 prostate cancer cells) (P08581 25-1390): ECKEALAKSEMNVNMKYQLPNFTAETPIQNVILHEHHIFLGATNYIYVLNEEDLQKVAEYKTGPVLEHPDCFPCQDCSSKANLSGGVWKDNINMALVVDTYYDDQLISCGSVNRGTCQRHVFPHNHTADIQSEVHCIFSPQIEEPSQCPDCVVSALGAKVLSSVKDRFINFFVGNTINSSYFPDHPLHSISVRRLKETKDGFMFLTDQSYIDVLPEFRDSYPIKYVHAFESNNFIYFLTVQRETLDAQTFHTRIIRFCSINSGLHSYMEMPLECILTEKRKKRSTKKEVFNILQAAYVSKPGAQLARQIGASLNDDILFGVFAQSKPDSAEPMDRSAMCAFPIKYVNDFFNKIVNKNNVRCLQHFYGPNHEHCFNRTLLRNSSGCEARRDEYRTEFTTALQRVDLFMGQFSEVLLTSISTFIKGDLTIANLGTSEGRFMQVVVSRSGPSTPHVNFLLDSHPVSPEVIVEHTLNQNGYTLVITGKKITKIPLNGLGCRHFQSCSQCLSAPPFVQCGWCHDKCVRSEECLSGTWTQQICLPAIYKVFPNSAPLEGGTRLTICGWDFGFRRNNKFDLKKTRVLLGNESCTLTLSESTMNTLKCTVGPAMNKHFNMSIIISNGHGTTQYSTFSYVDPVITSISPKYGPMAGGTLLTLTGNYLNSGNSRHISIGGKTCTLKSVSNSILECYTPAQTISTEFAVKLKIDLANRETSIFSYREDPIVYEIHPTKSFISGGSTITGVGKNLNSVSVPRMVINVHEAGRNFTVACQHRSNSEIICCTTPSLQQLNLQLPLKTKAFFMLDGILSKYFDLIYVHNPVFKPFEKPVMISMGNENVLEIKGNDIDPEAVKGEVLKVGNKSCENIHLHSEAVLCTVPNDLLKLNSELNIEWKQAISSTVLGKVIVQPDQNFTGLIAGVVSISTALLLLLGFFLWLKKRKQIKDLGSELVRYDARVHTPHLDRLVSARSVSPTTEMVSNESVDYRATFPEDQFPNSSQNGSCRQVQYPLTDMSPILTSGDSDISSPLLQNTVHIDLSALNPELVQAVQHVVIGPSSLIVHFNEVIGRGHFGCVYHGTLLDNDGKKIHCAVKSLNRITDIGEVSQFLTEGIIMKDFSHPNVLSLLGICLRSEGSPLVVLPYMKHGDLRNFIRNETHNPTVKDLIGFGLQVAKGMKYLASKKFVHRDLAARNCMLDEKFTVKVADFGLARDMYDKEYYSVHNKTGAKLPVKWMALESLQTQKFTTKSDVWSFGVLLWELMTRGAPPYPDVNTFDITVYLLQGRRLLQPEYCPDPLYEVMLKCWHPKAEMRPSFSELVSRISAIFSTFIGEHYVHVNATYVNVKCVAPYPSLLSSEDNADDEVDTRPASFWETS
Chain of Human MER (residues 528-999) (Q12866 528-999): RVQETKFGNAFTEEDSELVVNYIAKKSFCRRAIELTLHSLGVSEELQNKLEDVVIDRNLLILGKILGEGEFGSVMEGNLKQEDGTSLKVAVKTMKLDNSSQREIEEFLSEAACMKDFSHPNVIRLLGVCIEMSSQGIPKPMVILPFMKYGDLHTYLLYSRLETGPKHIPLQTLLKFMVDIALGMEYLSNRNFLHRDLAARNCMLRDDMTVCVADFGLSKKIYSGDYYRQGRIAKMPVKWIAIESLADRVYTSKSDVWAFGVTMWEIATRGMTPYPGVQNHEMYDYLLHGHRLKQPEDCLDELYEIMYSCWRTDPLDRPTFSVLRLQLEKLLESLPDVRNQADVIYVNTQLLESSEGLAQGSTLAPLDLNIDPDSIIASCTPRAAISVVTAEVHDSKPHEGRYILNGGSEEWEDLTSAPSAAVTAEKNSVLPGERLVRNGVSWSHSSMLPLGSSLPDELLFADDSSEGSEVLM

| IC50 [1] | IC50 [2] | IC50 [3] | IC50 [4] | Structure (SMILES) |
| --- | --- | --- | --- | --- |
| < 0.1 µM | < 0.1 µM | < 0.1 µM | < 0.1 µM | COc1cc2nccc(Oc3ccc(NC(=O)c4cccn(-c5ccc(F)cc5)c4=O)cc3F)c2nc1OC [Compound 293, N-[4-[(6,7-Dimethoxy-1,5-naphthyridin-4-yl)oxy]-3-fluorophenyl]-1-(4-fluorophenyl)-2-oxopyridine-3-carboxamide] |
| < 0.1 µM | < 0.1 µM | < 0.1 µM | < 0.1 µM | COc1cnc2c(Oc3ccc(NC(=O)c4c(C)ccn(-c5ccc(F)cc5)c4=O)cc3F)ccnc2c1 [Compound 294, N-[3-Fluoro-4-[(7-methoxy-1,5-naphthyridin-4-yl)oxy]phenyl]-1-(4-fluorophenyl)-4-methyl-2-oxopyridine-3-carboxamide] |
| < 0.1 µM | < 0.1 µM | < 0.1 µM | < 0.1 µM | Cc1cc(C)n(-c2ccc(F)cc2)c(=O)c1C(=O)Nc1ccc(Oc2ccnc3cccnc23)c(F)c1 [Compound 295, N-[3-Fluoro-4-(1,5-naphthyridin-4-yloxy)phenyl]-1-(4-fluorophenyl)-4,6-dimethyl-2-oxopyridine-3-carboxamide] |
| < 0.1 µM | 0.1 to 0.3 µM | < 0.1 µM | < 0.1 µM | COc1ccc2nccc(Oc3ccc(NC(=O)c4c(C)cc(C)n(-c5ccc(F)cc5C)c4=O)cc3F)c2n1 [Compound 296, N-[3-Fluoro-4-[(6-methoxy-1,5-naphthyridin-4-yl)oxy]phenyl]-1-(4-fluoro-2-methylphenyl)-4,6-dimethyl-2-oxopyridine-3-carboxamide] |
| < 0.1 µM | < 0.1 µM | < 0.1 µM | < 0.1 µM | Cc1ccc2nccc(Oc3ccc(NC(=O)c4c(C)cc(C)n(-c5ccc(F)cc5)c4=O)cc3F)c2n1 [Compound 297, N-[3-Fluoro-4-[(6-methyl-1,5-naphthyridin-4-yl)oxy]phenyl]-1-(4-fluorophenyl)-4,6-dimethyl-2-oxopyridine-3-carboxamide] |
| < 0.1 µM | < 0.1 µM | < 0.1 µM | < 0.1 µM | COc1cc2nccc(Oc3ccc(NC(=O)c4c(C)cc(C)n(-c5ccc(F)cc5C)c4=O)cc3F)c2nc1OC [Compound 298, N-[4-[(6,7-Dimethoxy-1,5-naphthyridin-4-yl)oxy]-3-fluorophenyl]-1-(4-fluoro-2-methylphenyl)-4,6-dimethyl-2-oxopyridine-3-carboxamide] |
| < 0.1 µM | < 0.1 µM | < 0.1 µM | < 0.1 µM | COc1cc2nccc(Oc3ccc(NC(=O)c4c(C)ccn(-c5ccc(F)cc5)c4=O)cc3)c2nc1OC [Compound 299, N-[4-[(6,7-Dimethoxy-1,5-naphthyridin-4-yl)oxy]phenyl]-1-(4-fluorophenyl)-4-methyl-2-oxopyridine-3-carboxamide] |

The next lines start with the compound.

| Structure (SMILES) | IC50 [1] | IC50 [2] | IC50 [3] | IC50 [4] |
| --- | --- | --- | --- | --- |
| COc1cc2nccc(Oc3ccc(NC(=O)c4c(C)cc(C)n(-c5ccc(F)cc5)c4=O)cc3F)c2nc1OC [Compound 279, N-[4-[(6,7-Dimethoxy-1,5-naphthyridin-4-yl)oxy]-3-fluorophenyl]-1-(4-fluorophenyl)-4,6-dimethyl-2-oxopyridine-3-carboxamide] | < 0.1 µM | < 0.1 µM | < 0.1 µM | < 0.1 µM |
| COc1cnc2c(Oc3ccc(NC(=O)c4c(C)cc(C)n(-c5ccc(F)cc5)c4=O)cc3F)ccnc2c1 [Compound 280, N-[3-Fluoro-4-[(7-methoxy-1,5-naphthyridin-4-yl)oxy]phenyl]-1-(4-fluorophenyl)-4,6-dimethyl-2-oxopyridine-3-carboxamide] | < 0.1 µM | < 0.1 µM | < 0.1 µM | < 0.1 µM |
| COc1ccc2nccc(Oc3ccc(NC(=O)c4c(C)cc(C)n(-c5ccc(F)cc5)c4=O)cc3F)c2n1 [Compound 281, N-[3-Fluoro-4-[(6-methoxy-1,5-naphthyridin-4-yl)oxy]phenyl]-1-(4-fluorophenyl)-4,6-dimethyl-2-oxopyridine-3-carboxamide] | < 0.1 µM | < 0.1 µM | < 0.1 µM | < 0.1 µM |
| COc1cc2nccc(Oc3ccc(NC(=O)c4cn(C)c(CO)c(-c5ccc(F)cc5C)c4=O)cc3F)c2nc1OC [Compound 282, N-[4-[(6,7-Dimethoxy-1,5-naphthyridin-4-yl)oxy]-3-fluorophenyl]-5-(4-fluoro-2-methylphenyl)-6-(hydroxymethyl)-1-methyl-4-oxopyridine-3-carboxamide] | < 0.1 µM | > 0.3 µM | < 0.1 µM | < 0.1 µM |
| CCn1cc(C(=O)Nc2ccc(Oc3ccnc4cc(OC)c(OC)nc34)c(F)c2)c(=O)c(-c2ccc(F)cc2C)c1CO [Compound 283, N-[4-[(6,7-Dimethoxy-1,5-naphthyridin-4-yl)oxy]-3-fluorophenyl]-1-ethyl-5-(4-fluoro-2-methylphenyl)-6-(hydroxymethyl)-4-oxopyridine-3-carboxamide] | < 0.1 µM | > 0.3 µM | < 0.1 µM | < 0.1 µM |
| CCn1cc(C(=O)Nc2ccc(Oc3ccnc4cc(OC)c(OC)nc34)cc2)c(=O)c(-c2ccc(F)cc2C)c1CO [Compound 284, N-[4-[(6,7-Dimethoxy-1,5-naphthyridin-4-yl)oxy]phenyl]-1-ethyl-5-(4-fluoro-2-methylphenyl)-6-(hydroxymethyl)-4-oxopyridine-3-carboxamide] | < 0.1 µM | > 0.3 µM | < 0.1 µM | < 0.1 µM |
| CCn1cc(C(=O)Nc2ccc(Oc3ccnc4cc(OC)cnc34)c(F)c2)c(=O)c(-c2ccc(F)cc2C)c1CO [Compound 285, 1-Ethyl-N-[3-fluoro-4-[(7-methoxy-1,5-naphthyridin-4-yl)oxy]phenyl]-5-(4-fluoro-2-methylphenyl)-6-(hydroxymethyl)-4-oxopyridine-3-carboxamide] | < 0.1 µM | > 0.3 µM | < 0.1 µM | < 0.1 µM |
| COc1cc2nccc(Oc3ccc(NC(=O)c4c(C)ccn(-c5ccc(F)cc5)c4=O)cc3F)c2nc1OC [Compound 286, N-[4-[(6,7-Dimethoxy-1,5-naphthyridin-4-yl)oxy]-3-fluorophenyl]-1-(4-fluorophenyl)-4-methyl-2-oxopyridine-3-carboxamide] | < 0.1 µM | < 0.1 µM | < 0.1 µM | < 0.1 µM |
| COc1ccc2nccc(Oc3ccc(NC(=O)c4c(C)ccn(-c5ccc(F)cc5)c4=O)cc3F)c2n1 [Compound 287, N-[3-Fluoro-4-[(6-methoxy-1,5-naphthyridin-4-yl)oxy]phenyl]-1-(4-fluorophenyl)-4-methyl-2-oxopyridine-3-carboxamide] | < 0.1 µM | < 0.1 µM | < 0.1 µM | < 0.1 µM |
| COc1cc2nccc(Oc3ccc(NC(=O)c4c(C)cc(C)n(-c5ccc(F)cc5)c4=O)cc3)c2nc1OC [Compound 288, N-[4-[(6,7-Dimethoxy-1,5-naphthyridin-4-yl)oxy]phenyl]-1-(4-fluorophenyl)-4,6-dimethyl-2-oxopyridine-3-carboxamide] | < 0.1 µM | < 0.1 µM | < 0.1 µM | < 0.1 µM |
| COc1cnc2c(Oc3ccc(NC(=O)c4c(C)cc(C)n(-c5ccc(F)cc5)c4=O)cc3)ccnc2c1 [Compound 289, 1-(4-Fluorophenyl)-N-[4-[(7-methoxy-1,5-naphthyridin-4-yl)oxy]phenyl]-4,6-dimethyl-2-oxopyridine-3-carboxamide] | < 0.1 µM | < 0.1 µM | < 0.1 µM | < 0.1 µM |
| COc1ccc2nccc(Oc3ccc(NC(=O)c4c(C)cc(C)n(-c5ccc(F)cc5)c4=O)cc3)c2n1 [Compound 290, 1-(4-Fluorophenyl)-N-[4-[(6-methoxy-1,5-naphthyridin-4-yl)oxy]phenyl]-4,6-dimethyl-2-oxopyridine-3-carboxamide] | < 0.1 µM | < 0.1 µM | < 0.1 µM | < 0.1 µM |
| COc1cnc2c(Oc3ccc(NC(=O)c4cccn(-c5ccc(F)cc5)c4=O)cc3F)ccnc2c1 [Compound 291, N-[3-Fluoro-4-[(7-methoxy-1,5-naphthyridin-4-yl)oxy]phenyl]-1-(4-fluorophenyl)-2-oxopyridine-3-carboxamide] | < 0.1 µM | > 0.3 µM | < 0.1 µM | < 0.1 µM |
| COc1ccc2nccc(Oc3ccc(NC(=O)c4cccn(-c5ccc(F)cc5)c4=O)cc3F)c2n1 [Compound 292, N-[3-Fluoro-4-[(6-methoxy-1,5-naphthyridin-4-yl)oxy]phenyl]-1-(4-fluorophenyl)-2-oxopyridine-3-carboxamide] | < 0.1 µM | > 0.3 µM | < 0.1 µM | < 0.1 µM |
